By Ki is commonly meant a measure of affinity in units of concentration, obtained from inhibition or displacement.

The values that follow come from PMC10958501, “4-Oxypiperidine Ethers as Multiple Targeting Ligands at Histamine H3 Receptors and Cholinesterases” (ACS Chemical Neuroscience, 2024).

SMILES strings stand for the structures.

The experiment deals with T1, hH3R (Homo sapiens, UniProt Q9Y5N1).
T1 construct: expressed in transfected cells; membrane fractions
In words: hH3R radioligand displacement assay in membrane fractions of HEK-293 cells. In kind it is binding. The following applies: [3H]Nα-methylhistamine displacement, HEK-293 membranes; 95% CI in brackets. As to the method: The compounds were tested against H3R by an ex vivo assay using isolated guinea pig ileum electrically stimulated to contraction, according to Vollinga et al.[47] The pA2-values were calculated according to Arunlakshana and Schild.[59] The radioligand-displacement assay was performed in membrane fractions of HEK-293 cells stably expressing hH3R. Cell cultivation and membrane preparation were performed according to Kottke et al.[48] The Ki values were calculated from the IC50 values using the Cheng–Prusoff equation.[60] The statistical calculations were performed on −log(Ki). The mean values and 95% confidence intervals were transformed to nanomolar concentrations. The inhibitory activities toward AChE and BuChE of novel ADS compounds were assessed in a spectrophotometric Ellman’s assay using electric eel AChE (eeAChE) and equine BuChE (eqBuChE).[57] Intracellular cAMP accumulation was measured with a homogeneous TR-FRET immunoassay using the LANCE Ultra cAMP kit (PerkinElmer) and HEK293 cells stably expressing the human histamine H3 receptor.[61] A more detailed description of the biological methods is presented in the Supporting Information. […]
considered statistically significant. The pA2 values were compared with the affinity of thioperamide (Sigma-Aldrich, St. Louis, MO, USA).
3.2. hH 3R radioligand displacement binding assay.
The radioligand displacement binding assay was performed in membrane fractions of HEK-293 cells stably expressing hH3R. Cell cultivation and membrane preparation was performed according to Kottke et al 6. For the radioligand displacement assay, radioactively labeled […]
assay volume was set to 200 µL. The compounds were tested in several appropriate concentrations between 100 µM and 0.1 nM. Pipetting was partly done by Freedom Evo® (Tecan). Pitolisant was used to determine non-specific binding at a concentration of 10 µM.
The membrane fraction (20 µg/well), test compounds, and radiolabeled ligand were incubated for 90 minutes at 25 °C while shaking. The bound radioligand was separated from the free radioligand by filtration through GF/B filters pre-treated with 0.3 % (m/v) polyethyleneimine using a cell harvester. Radioactivity was determined by liquid scintillation counting using a MicroBeta® Trilux (Perkin Elmer). The data was obtained in duplicates in at least three independent experiments. Non-specific binding was subtracted from the raw data to calculate specific binding values. The evaluation was performed with GraphPad Prism 6.1 (San Diego, CA, USA) using non-linear regression (one-site competition with a logarithmic scale). The Ki values were calculated from the IC50 values using the Cheng-Prusoff equation 7. The statistical calculations were performed on –log(Ki). […]

T1 sequence (Q9Y5N1 whole entry): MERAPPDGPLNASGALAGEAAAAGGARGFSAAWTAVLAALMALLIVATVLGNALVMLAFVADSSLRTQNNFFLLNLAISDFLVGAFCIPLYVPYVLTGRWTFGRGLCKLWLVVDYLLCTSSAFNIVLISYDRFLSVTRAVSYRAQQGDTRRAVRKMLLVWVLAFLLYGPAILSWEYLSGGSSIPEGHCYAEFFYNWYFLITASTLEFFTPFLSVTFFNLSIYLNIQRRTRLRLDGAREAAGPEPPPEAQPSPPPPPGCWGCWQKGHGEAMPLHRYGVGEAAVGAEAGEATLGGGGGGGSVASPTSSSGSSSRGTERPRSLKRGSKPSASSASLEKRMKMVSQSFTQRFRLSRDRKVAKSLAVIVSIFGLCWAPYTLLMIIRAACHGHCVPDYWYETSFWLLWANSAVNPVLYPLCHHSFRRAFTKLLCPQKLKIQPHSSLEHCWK

Take `CCCN(C)Cc1ccc2cc(COC3CCN(Cc4ccccc4)CC3)ccc2c1` [ADS031, N-((6-(((1-Benzylpiperidin-4-yl)oxy)methyl)naphthalen-2-yl)methyl)-N-methylpropan-1-amine]: the affinity, expressed as Ki, was 12.5 nM.
